Experimental data taken from US11938138B2, “Methods for improved treatment of cancer” (Washington University, priority 2020, dated 2024).
Entries after “also recorded” stand apart in the source; their conditions may differ.

Experiments:
K562 cells [1] = test: Cell cycle perturbation of K562 cells (DNA content, CD24, annexin V/PI); type: cell-based, human; conditions: five days, one-way ANOVA p<0.01 (FIG. 14H)
Protocol: (§1) CD24 surface protein was quantified using monoclonal human antibodies. Cells were spun down at 300 g for 3 minutes and washed twice with 1 mL of Cell Staining Buffer. The cell pellet was then resuspended in 50 μl of Cell Staining Buffer containing 0.2 μg of either CD24-APC or CD24-BV421. The tube was rotated at 4° C. in the dark for 30 minutes. After, cells were washed twice (as before) and finally resuspended in 200 μl of Cell Staining Buffer. Cells were excited with 450/45 and 660/20 lasers (wavelength/filter bandwidth, both in nm). For concomitant analysis of DNA content, we used CD24-APC. Cells were incubated with 10 μg/ml Hoechst 33342 in 5 mL of growth medium for 30 minutes prior to the staining protocol. For simultaneous assessment of apoptosis, cells were stained with CD24-BV421. After the final wash, instead of resuspending in 200 μl of Cell Staining Buffer, cells were washed twice with Annexin V Staining Buffer. Cells were then incubated in 50 μl Annexin V Staining Buffer containing 0.2 μg Annexin V-FITC and 100 μg/ml propidium iodide (PI). The reaction was incubated for 15 minutes at room temperature in the dark. Afterward, we added 150 μl of Annexin V Staining Buffer and proceeded to flow cytometry. All samples were measured on a Beckman-Coulter CytoFLEX S flow cytometer. Cells were excited with 450/45, 525/40, and 610/20 lasers. We collected 10,000 events per sample. The resulting data were processed with FlowJo Software for Mac Version 10.
We perturbed the cell cycle with lovastatin and nocodazole, two drugs classically used to synchronize cells in culture (Jackman and O'Connor, 2001), as well as the cyclin-dependent kinase inhibitors CVT-313 (Brooks et al., 1997) and RO-3306 (Vassilev et al., 2006). All drugs were dissolved in DMSO except nocodazole, which was dissolved in ethanol. […] Media was refreshed every 48 hours. After 36 hours of treatment, we stained for CD24 levels and nuclear DNA content. We gated for live, single cells using the forward scatter (FSC) and side scatter channels (SSC). Univariate cell cycle analysis was performed with FlowJo. We confirmed that all drugs perturbed cell cycle by altering the proportions of cells in either G1 or G2/M phase (FIG. 14G). […] Cultures remained under drug treatment until five days had elapsed, at which point we measured CD24 levels and stained for apoptosis (FIG. 14H). As before, we set gates to exclude debris to quantitate annexin V and PI, and measured CD24 in live cells gated on FSC and SSC. The G2 inhibitors, in particular, had very few cells in the FSC/SSC gate (typically below 5%).
For the analysis of annexin V levels in either JQ1- or DMSO-treated CD24^high and CD24^low cells, we used a three-way ANOVA with treatment, cell state, and day as independent variables. […] Multiple hypothesis correction was performed using Tukey's honestly significant difference. For the cell cycle inhibitor experiment, data were analyzed using a one-way ANOVA with Dunnett's post hoc test using either DMSO or EtOH (for RO-3306) as controls.

K562 cells [2] = test: JQ1 treatment of K562 cells, CD24 surface staining by flow cytometry; type: cell-based, human
Protocol: HCT-116, N2a, HEK293T, and HepG2 cells were cultured in Dulbecco's Modified Eagle Medium (DMEM) supplemented with 10% fetal bovine serum (FBS) and 1% of either penicillin-streptomycin or antibiotic-antimycotic. K562 (unless otherwise indicated) and OCM-1A cells were grown under the same conditions as described above, replacing DMEM with RPMI 1640 Medium. Cells were grown at 37° C. with 5% carbon dioxide (CO2). Media was replenished every 2 days. HepG2 cells were a gift from the Genome Engineering iPSC Center (GEiC) at Washington University in St. Louis School of Medicine. OCM-1A cells were a gift from Dr. Michael Onken. For the CD24^high/CD24^low cell state analyses, K562 cells were grown in IMDM containing 10% v/v FBS and 1% penicillin-streptomycin at 37° C. with 5% CO2. Frozen aliquots were thawed and passaged every 48 hours until they reached a maximum concentration of 800,000 cells/ml. For experiments, cells were seeded at mid-log phase concentrations, around 400,000 cells/ml. At this point, ratio of CD24^high/CD24^low cells was approximately 1:1, as determined by flow cytometry.
CD24 surface protein was quantified using monoclonal human antibodies. Cells were spun down at 300 g for 3 minutes and washed twice with 1 mL of Cell Staining Buffer. […] All samples were measured on a Beckman-Coulter CytoFLEX S flow cytometer. […]

MYC and CD24 mRNA = test: qRT-PCR for MYC and CD24 expression in K562 cells treated with JQ1; type: cell-based, human; conditions: K562, 250 nM JQ1, first 24 hours (FIG. 14C)
Protocol: Cells were pelleted, resuspended in 300 μl of RNA CellProtect, and stored at −80° C. When we were ready to extract RNA, we thawed cells, prepared samples using QIAGEN RNEasy Plus Mini Kit, and quantitated with the Qubit RNA High Sensitivity kit. We reverse transcribed 500 ng of RNA with the SuperScript VILO cDNA Synthesis Kit in a 20 μl reaction, with the following thermocycling parameters: 25° C. for 10 minutes; 42° C. for 2 hours; 85° C. for 5 minutes. We then performed PCR with 2 μl of the RT product as template, 1 μl each of forward and reverse primer (10 μM), 6 μl ddH2O, and 10 μl PowerUp SYBR Green Master Mix. We ran the PCR on an ABI QuantStudio 3 with the following settings: 2 minutes at 50° C., then 2 minutes at 95° C. (hot start); 45 cycles of 95° C. for 15 s followed by 60° C. for 1 minute. We generated melt curves after each PCR and all samples yielded a single peak. Gene-specific primers were obtained from PrimerBank (Wang et al., 2012b). Data were normalized to the levels of […].

K562 cells [3] = test: Imatinib treatment of K562 cells after JQ1 pretreatment (CD24, annexin V/PI staining); type: cell-based, human
Protocol: as §1, with “Cells were then incubated in 50 μl Annexin V Staining Buffer containing 0.2 μg Annexin V-FITC and 100 μg/ml propidium iodide (PI). The reaction was incubated for 15 minutes at room temperature in the dark. Afterward, we added 150 μl of Annexin V Staining Buffer and proceeded to flow cytometry.” left out, “Cells were excited with 450/45, 525/40, and 610/20 lasers. We collected 10,000 events per sample. The resulting data were processed with FlowJo Software for Mac Version 10.” left out
For the analysis of annexin V levels in either JQ1- or DMSO-treated CD24^high and CD24^low cells, we used a three-way ANOVA with treatment, cell state, and day as independent variables. […] For the cell cycle inhibitor experiment, data were analyzed using a one-way ANOVA with Dunnett's post hoc test using either DMSO or EtOH (for RO-3306) as controls.

[4] = tested on: MNNG/HOS osteosarcoma cells; conditions: as single agent; cited from earlier work

Cc1sc2c(c1C)C(c1ccc(Cl)cc1)=N[C@@H](CC(=O)OC(C)(C)C)c1nnc(C)n1-2 [JQ1]
reduction in CD24high cells compared with cell cycle inhibitors (K562 cells [1]; 250 nM JQ1): greatest reduction | apoptosis compared with lovastatin, its closest competitor (K562 cells [1]; annexin V/PI): significantly less apoptosis | time course of conversion to CD24low state (K562 cells [2]; K562, 250 nM JQ1, 7-day time course (FIG. 6D), rapid over first two days, stable at one week): plateaus at day four; also recorded: plateaued by day 4 | CD24low cells in the population after JQ1 exposure (K562 cells [2]; K562, 250 nM JQ1, 96 h (FIG. 6C), start equal proportions CD24high/CD24low): > 95% | time of JQ1 exposure within which MYC mRNA levels fell (MYC and CD24 mRNA): ≤ 3 h | sensitivity of K562 cells to imatinib (K562 cells [3]; BET inhibitor pretreatment, then imatinib 1 μM): sensitizes K562 cells to imatinib | fraction of CD24high cells after pretreatment (mean) (K562 cells [3]; K562, 250 nM JQ1 for five days, DMSO group 54%): 17% | tumor volume and weight [4]: had no effect on either
